Laboratory results from patent US9675591B2, “Methods for treating seizure disorders and pain” (THE REGENTS OF THE UNIVERSITY OF CALIFORNIA, priority 2013, dated 2017).

How the values were obtained:
MES-induced seizures = assay: MES seizure test, CF-1 mice, compounds given i.p. as solution; format: in vivo
Protocol: MES assays were performed at the Department of Neurology at the University of California with CF-1 mice. This study was approved by the University of California, Davis, Animal Use and Care Committee and conducted in accordance with the guidelines of Animal Use and Care of the National Institutes of Health and the University of California. For these assays, stock solutions of SKA-19 (5 mg/ml) were prepared in 5% CremophorEL (Sigma-Aldrich, St. Louis, Mo., USA) and 95% saline, diluted further with saline, and SKA-19 was administered i.p. in a volume of 10 ml/kg body weight. Animals were subjected to a 0.2-s, 60-Hz electrical stimulus through corneal electrodes (5 mm diameter stainless steel balls). The electroshock unit was adjusted to deliver a constant current of 50 mA. Immediately before stimulation, the corneal electrodes were wetted with saline to provide good electrical contact. Animals failing to show tonic hindlimb extension were scored as protected (Kokate et al., 1994).
The mouse maximal electroshock (MES) and 6 Hz seizure models were used. Motor toxicity was assessed using a modification of the horizontal screen test. ED50 values in the seizure models and TD50 values in the toxicity test were determined by nonlinear fitting of dose-response curves. […] Drugs solutions were injected intraperitoneally 10 min prior to administration of the electrical stimulus in a volume of 10 ml/kg body weight.

[1] = tested on: Metrazol seizure threshold; assay: Infusion of Metrazol (i.v. Met) seizure threshold test; format: in vivo, mice
Protocol: The i.v. Met test provides a measure of a test substance's ability to raise or lower seizure threshold. Two doses of the test compound are usually employed in this test, the MES ED50 and the TD50 determined following i.p. quantification testing in mice. SKA-19 was accordingly tested at 5 and 30 mg/kg. Randomly selected mice (n=30) were injected i.p. 2 minutes apart with either the vehicle or the two test drug doses. At the previously determined TPE, 0.5% heparinized Metrazol solution was infused at a constant rate of 0.34 ml/min into a lateral tail vein. The time in seconds from the start of the infusion to the appearance of the “first twitch” and the onset of sustained clonus is recorded. The times to each endpoint are converted to mg/kg of Metrazol for each mouse as follows: mg/kg Met=Infusion time (T)×Rate of infusion (ml/min)×mg Met/ml×1000 g/60 sec×Weight (W) of animal in g=T×0.34×5×1000=28.33×T=mg/kg of Metrazol 60×W W. The mean and S.E. for each of the 3 groups and the significance of the difference between the test groups and the control are calculated.

[2] = Plasma protein binding by ultrafiltration; format: in vitro ADME; conditions: rat plasma
Protocol: For intravenous application, SKA-19 was dissolved at 5 mg/mL in a mixture of 10% CremophorEL (Sigma-Aldrich, St. Louis, Mo., USA) and 90% phosphate-buffered saline and then injected at 10 mg/kg into the tail vein of Sprague-Dawley rats. At various time points after the injection, ˜100 to 200 μL of blood was collected from a tail nick into EDTA blood sample collection tubes. Plasma was separated by centrifugation and stored at −80° C. pending analysis. For intraperitoneal application SKA-19 was dissolved in Miglyol 812 neutral oil (caprylic/capric triglyceride; Trade name Neobee M5, Spectrum Chemicals, Gardena, Calif., USA) at 2 mg/mL and injected intraperitoneally at 10 and 30 mg/kg. After determining that SKA-19 plasma concentrations peaked 2 h after i.p. application, a group of 3 rats was subjected to cardiac puncture under deep isoflurane anesthesia and then sacrificed before removing brain, heart, liver, spleen and fat. Tissue samples were homogenized in 1 ml of H2O with a Brinkman Kinematica PT 1600E homogenizer and the protein precipitated with 1 ml of acetonitrile. The samples were then centrifuged at 3000 rpm and supernatants concentrated to 1 ml. Plasma and homogenized tissue samples were purified using C18 solid phase extraction cartridges. Eluted fractions corresponding to SKA-19 were dried under nitrogen and reconstituted in acetonitrile. […] Using electrospray ionization MS and selective reaction monitoring (SRM) (capillary temperature 350° C., capillary voltage 4000 V, collision energy −26 eV, positive ion mode), SKA-19 was quantified by its base peak of 182.9 m/z (C7H7N2S2^•+ fragment) and its concentration was calculated with a 9-point calibration curve from 50 nmol/L to 10 μmol/L. The percentage of plasma protein binding for SKA-19 was determined by ultrafiltration. […] The centrifugate (=free SKA-19) was directly analyzed for SKA-19 by UPLC-MS. […]

KCa2.3 (SK3) = KCa2.3 (SK3) (Homo sapiens (Human), UniProt Q9UGI6); assay: Whole-cell patch-clamp, KCa2.3; format: cell-based; conditions: 250 nM free intracellular Ca2+; read-out: EC50 or IC50, KCa2.3
Protocol: HEK-293 or COS-7 cells stably expressing hKCa2.1, rKCa2.2, and hKCa2.3 have been described previously (Sankaranarayanan et al., 2009). Cells were held at −80 mV and KCa currents elicited by dialysis with a K^+ aspartate based internal containing 250 nM free Ca^2+ (pH 7.2, 290 mOsm, pipette resistance 1.5 MΩ). To reduce currents from native chloride channels, Na^+ aspartate Ringer was used as an external solution. KCa2 currents were recorded with 200-ms voltage ramps from −120 to +40 mV applied every 10 s, and the fold increase of slope conductance at −80 mV by drug was taken as a measure of channel activation. Data analysis, fitting, and plotting were performed with IGOR-Pro (Wavemetrics, Lake Oswego, Oreg., USA) and Origin 9.0 (OriginLab, Northampton, Mass., USA).

[3] = ASP toxicity studies (species not stated); format: in vivo; conditions: 200 mg/kg

Nc1nc2ccc(SC(F)(F)F)cc2s1 [SKA-19, 6-((trifluoromethyl)thio)benzo[d]thiazol-2-amine]
duration of full protection (MES-induced seizures; 10 mg/kg i.p. as solution): 2.5 h | duration of significant seizure protection (MES-induced seizures; 5 and 6 mg/kg i.p. as solution): at least 90 min | duration of protective activity (MES-induced seizures; MES test, 10 mg/kg i.p. as solution): up to 4 h | ED50 (MES-induced seizures; Mus musculus, ip, 10 min, i.p. as solution, 10 min time point, read-out: ED50, seizure protection in the MES test): 4.93 mg/kg | onset of protection from seizures after application (MES-induced seizures; i.p. as solution): ≤ 5 min | protective index PI (TD50/ED50) (MES-induced seizures; i.p. as solution, 10 min time point): 3.2 | time or metrazole dose to the first twitch or clonus ([1]; 5 mg/kg i.p.): did not change | proconvulsant action ([1]; 5 and 30 mg/kg i.p.): not proconvulsant | Metrazole dose to first clonus ([1]; SKA-19 30 mg/kg i.p.): 37.2 ± 1.25 mg/kg | Metrazole dose to first twitch ([1]; SKA-19 30 mg/kg i.p.): 31.6 ± 1.0 mg/kg | fraction unbound [2]: 0.11 to 0.18 | fraction unbound at 15 min [2]: 0.11 | unbound (free) fraction [2]: 9.0±0.4% | EC50 (KCa2.3 (SK3)): 15 µM | duration of sedation and neurological impairment [3]: up to 24 h
